Columns and labels:
MukB [1] = target: T1, MukB (Escherichia coli, UniProt P22523); assay: magnetic bead DNA bridging pull-down; type: biochemical; settings: 20 mM HEPES pH 7.7, 50 mM NaCl, 2 mM MgCl2, 5% glycerol, 1 mM DTT
MukB [2] = target: T1, MukB; assay: SPR; type: binding; settings: 25 uM compound, 20 mM HEPES-KOH pH 7.0, 50 mM NaCl, 0.5% DMSO

T1 sequence (P22523 whole entry): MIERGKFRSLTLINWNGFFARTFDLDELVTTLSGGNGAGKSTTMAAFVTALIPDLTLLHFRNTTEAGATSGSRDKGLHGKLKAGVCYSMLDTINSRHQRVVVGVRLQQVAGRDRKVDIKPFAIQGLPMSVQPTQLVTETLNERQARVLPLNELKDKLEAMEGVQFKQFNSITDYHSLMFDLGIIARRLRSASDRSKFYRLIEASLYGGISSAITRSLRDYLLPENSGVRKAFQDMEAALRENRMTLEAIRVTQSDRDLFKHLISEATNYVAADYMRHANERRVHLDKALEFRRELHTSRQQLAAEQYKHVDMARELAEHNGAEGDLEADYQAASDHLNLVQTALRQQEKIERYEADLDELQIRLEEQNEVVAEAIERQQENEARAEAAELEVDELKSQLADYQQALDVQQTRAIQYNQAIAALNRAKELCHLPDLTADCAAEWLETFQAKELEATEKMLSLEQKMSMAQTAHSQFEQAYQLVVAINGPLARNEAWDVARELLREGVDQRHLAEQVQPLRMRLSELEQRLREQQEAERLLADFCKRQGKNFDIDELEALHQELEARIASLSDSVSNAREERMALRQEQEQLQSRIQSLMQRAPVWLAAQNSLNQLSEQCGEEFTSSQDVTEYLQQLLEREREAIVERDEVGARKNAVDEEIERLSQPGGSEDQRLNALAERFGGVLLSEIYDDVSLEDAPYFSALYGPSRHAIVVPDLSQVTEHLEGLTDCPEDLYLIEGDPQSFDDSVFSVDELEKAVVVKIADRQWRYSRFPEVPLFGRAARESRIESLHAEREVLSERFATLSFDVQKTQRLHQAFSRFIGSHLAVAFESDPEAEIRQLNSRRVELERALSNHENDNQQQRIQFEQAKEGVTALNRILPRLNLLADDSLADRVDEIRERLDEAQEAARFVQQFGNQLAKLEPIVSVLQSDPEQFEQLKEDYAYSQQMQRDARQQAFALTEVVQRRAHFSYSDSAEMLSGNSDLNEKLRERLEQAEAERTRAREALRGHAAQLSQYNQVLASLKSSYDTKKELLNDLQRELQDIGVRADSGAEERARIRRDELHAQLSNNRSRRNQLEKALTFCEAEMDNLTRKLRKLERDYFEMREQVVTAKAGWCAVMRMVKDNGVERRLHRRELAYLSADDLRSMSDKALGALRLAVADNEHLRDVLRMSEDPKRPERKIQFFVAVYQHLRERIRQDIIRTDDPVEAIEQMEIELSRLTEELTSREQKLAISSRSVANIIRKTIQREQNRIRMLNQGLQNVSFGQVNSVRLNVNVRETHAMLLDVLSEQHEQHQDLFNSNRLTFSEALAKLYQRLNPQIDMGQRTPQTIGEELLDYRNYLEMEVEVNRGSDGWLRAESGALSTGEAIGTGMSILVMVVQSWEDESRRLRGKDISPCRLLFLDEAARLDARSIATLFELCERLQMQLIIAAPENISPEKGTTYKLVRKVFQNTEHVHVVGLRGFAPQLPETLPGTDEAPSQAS

SMILES | inhibition of DNA bridging (MukB [1]) | SPR (Biacore, MukB immobilised on CM5 chip) (MukB [2])
Cc1c2ccncc2c(C)c2c1[nH]c1ccccc12 [NSC71795] | Michellamine B, NSC71795 and, to a smaller degree, NSC45383, inhibit MukB mediated DNA bridging | A much weaker binding could be detected for NSC71795 (ellipticine) and NSC45383 (streptonigrin)
COC1=C(N)C(=O)c2nc(-c3nc(C(=O)O)c(C)c(-c4ccc(OC)c(OC)c4O)c3N)ccc2C1=O [NSC45383] | Michellamine B, NSC71795 and, to a smaller degree, NSC45383, inhibit MukB mediated DNA bridging | A much weaker binding could be detected for NSC71795 (ellipticine) and NSC45383 (streptonigrin)
COc1cc(C)cc2c(-c3c(O)cc(O)c4c3C[C@H](C)N[C@H]4C)cc(-c3cc(-c4c(O)cc(O)c5c4C[C@H](C)N[C@H]5C)c4cc(C)cc(OC)c4c3O)c(O)c12 [NSC661755, Michellamine B] | Michellamine B, NSC71795 and, to a smaller degree, NSC45383, inhibit MukB mediated DNA bridging | 
